pEC50, pIC50: −log10 of the molar value. Read-outs that look alike come from different tables or passages of the source.
Tests used:
Human TOP2A = molecular target: T1, Human TOP2A (Homo sapiens, UniProt P11388); test: TOP2A DNA decatenation assay (kDNA, agarose gel); type: biochemical; conditions: for TOP2A inhibition, result in words: decatenation screen at 30 μM
T1 construct: purchased TopoGEN (Buena Vista, CO)
Method: Inhibition of TOP2A activity. Human TOP2A, kDNA, and assay buffers were obtained from TopoGEN (Buena Vista, CO). The synthesized compounds were screened for their TOP2A inhibitory activity by the intensity of DNA decatenation bands on a DNA gel when compared to the vehicle. Compounds were initially incubated with TOP2A (3 U/reaction) for 20 min at a 30 μM and 1.2% DMSO concentration in a 37° C. incubator without CO2.
The decatenation reaction was initiated immediately after by adding 2 mM ATP and 35 ng/reaction of kDNA, then incubated for 1 hour in a 37° C. water bath. The samples were loaded into a 0.8% agarose gel in 1× Tris-Borate-EDTA (TBE) at a 0.2 μg/mL ethidium bromide concentration and allowed to run in an electrophoretic chamber for 1 hour at 100V. Compounds with the highest inhibitory activity were selected for 2-fold serial dilution dose-response assays (58.6 nM-30 μM). The dose-response assays followed the same protocol with the exception of 4 U/reaction of TOP2A.
Inhibition studies of TOP2A and observed structure activity relationships (SAR). DNA catenation/decatenation or linking/unlinking of DNA is one of the main TOP2A functions essential for regulating DNA topology, and this is ATP dependent. […] Thus, as a starting point, the synthesized analogs were screened against TOP2A-dependent decatenation using 30 μM fixed concentrations, and the DNA from reactions were resolved on 0.8% agarose gels containing ethidium bromide.
Moreover, these studies provided interesting SAR, which shed light on the potential lead drug target binding interactions and affinity, biological activity, and future drug design optimization with this unique class of TOP2A inhibitors.
(§1) TOP2A decatenation assay. Human TOP2A, kDNA, and assay buffers were obtained from TopoGEN (Buena Vista, CO). The synthesized compounds were screened for their TOP2A inhibitory activity by the intensity of DNA decatenation bands on a DNA gel when compared to the vehicle. Compounds were initially incubated with TOP2A (3 U/reaction) for 20 min at a 30 μM and 1.2% DMSO concentration in a 37° C. incubator without CO2. The decatenation reaction was initiated immediately after by adding 2 mM ATP and 35 ng/reaction of kDNA, then incubated for 1 h in a 37° C. water bath. The samples were loaded into a 0.8% agarose gel in 1× Tris-Borate-EDTA (TBE) at a 0.2 μg/mL ethidium bromide concentration and allowed to run in an electrophoretic chamber for 1 h at 100V. Compounds with the highest inhibitory activity were selected for 2-fold serial dilution dose-response assays (58.6 nM-30 μM). The dose-response assays followed the same protocol with the exception of 4 U/reaction of TOP2A,
as §1, with “assays (53.6” for “assays (58.6”, “of TOP2A.” for “of TOP2A,”

[1] = tested on: TOP2A-dependent TCF-transcription in SW620-TOP tumor organoids; test: TCF (TOPflash) reporter assay in 3D tumor organoids; type: cell-based; conditions: SW620-TOP tumor organoids, 72 hours; read-out: IC50 inhibition of TCF-transcription
Method: TCF reporter assay in 3D Tumor organoid. Stable engineered cells containing pCDH-TOPflash-luc-EF1-puro were used to generate tumor organoid arrayed in 96-well plates and treated for 72 hours. One-Glo™ luciferase reagent and CellTiter-Glo™ 3D cell viability reagent (Promega) were used to determine the TCF reporter activity in viable cells.
After characterizing 3 and 7 as TOP2A ATP-competitive inhibitors, these compounds were next tested for their ability to inhibit TOP2A-dependent TCF-transcription using the well characterized TOPflash (TOP) luminescent reporter, which was used to generate a stably transduced SW620-TOP reporter cells as described previously (Zhou, et al., Oncogene 2016, 35:4990-9). These cells were used to generate single 3D tumor organoids (700 μm in diameter) uniformly arrayed in 96-well plates, which mimic aspects of tumor function observed in vivo. […] Like neo, the mode of action of compounds 3 and 7 also results in significant antitumor activity (FIGS. 3E-3H). […] In other words, the activity of 3 and 7 is long lasting, suppressing CSC stemness and related tumorigenicity. EMT is a major driving force promoting tumor cell invasion and metastasis. […] Tumor organoids were dissociated, and viable cells were washed and plated into the top chamber of 96-well invasion plate coated with Matrigel and incubated for an additional 72 hours without adding any additional compound. […] Taken together, the biological activity of 3 and 7 is consistent with the activity of neo, inhibiting TOP2A-dependent TCF-transcription that in turn reverses EMT while inhibiting the associated tumorigenic properties of mCRC.
A similar trend in IC50 values was observed compared to TOP2A enzyme studies, further supporting our proposed mechanism of action as inhibition of TOP2A-dependent TCF-transcription.
3D Tumor organoid TOPflash reporter assay. […] 35(38): p. 4990-9.] were used to generate tumor organoids arrayed in 96-well plates and treated for 72 h with TOP2A inhibitors. One-Glo™ luciferase reagent and CellTiter-Glo™ 3D cell viability reagent (Promega, WI) were used to determine the TCF reporter activity in viable cells. Briefly, reagents were added to the spheroids at 1:1 ratio (v:v) and the plates were placed on an orbital shaker (300 rpm) for 10 min at room temperature before the luminescence was read with Envision plate reader (PerkinElmer, MA). TCF reporter activity was normalized to organoid viability and inhibitors treated conditions were normalized to DMSO treated controls.

[2] = tested on: E-cadherin promoter activity (EcadPro-RFP) in SW620 cells; test: EcadPro-RFP (mCherry) EMT reporter assay; type: cell-based; conditions: Homo sapiens, SW-620; Table 3; SW620 Cells; read-out: E-cadherin Up-regulation EC50
Description: (§2) VimPro-GFP and EcadPro-RFP reporter assays. […] 35(38): p. 4990-9.]
as §2

[3] = tested on: vimentin promoter activity (VimPro-GFP) in SW620 cells; test: VimPro-GFP EMT reporter assay; conditions: Homo sapiens, SW-620, read-out: Vimentin Down-regulation EC50 (μM)
Method: VimPro-GFP and EcadPro-mCherry reporter assays. VimPiro-GFP: SW620 cells were first transduced with NucLight Red virus (Essen BioSciences) and selected with Zeocin at 200 μg/mL, and then transduced with pCDH-VimPro-GFP-EF1-puro virus and selected with puromycin at 4 μg/mL. The dual fluorescently labeled cells were plated and treated in 3D tumor organoid as described. Tumor organoid images were recorded every 2 hours over a 72 hours period using an incucyte ZOOM content imaging system (Essen BioSciences) or PerkinElmer Phenix imager (PerkinElmer).
Analogs were also assessed for their ability to modulate or reverse EMT using VimPro-GFP and EcadPro-RFP SW620 reporter cells cultured as tumor organoids, determining EC50 dose responses over 72 hours (Table 2).
VimPro-GFP and EcadPro-RFP reporter assays. Stable VimPro-GFP or EcadPro-RFP SW620 reporter cells were generated using pCDH-VimPro-GFP-EF1-puro virus or pCDH-EcadPro-mCherry-EF1-puro virus as previously reported. […] Transduced cells were selected with puromycin at 2 μg/mL. The stable fluorescent labeled reporter cells were then used to generate tumor organoids as described. Tumor organoids were then treated with TOP2A inhibitors at 10 μM for an additional 72 h. Following treatment, tumor organoids were stained with 16 μM of Hoechst 33342 for 1 h, which functions as a nuclear stain for imaging segmentation. Images were taken with a 5× air objective. Z stacks were set at 20 μm apart for a total of 7 layers. Imaging analysis was performed using an Opera Phenix high content screening (HCS) system and Harmony high-content imaging and analysis software interface (PerkinElmer, MA). Nuclei were identified with Hoechst 33342 stain within each layer, and cells were found with either GFP or mCherry channel. The intensities of each fluorescence channel within the cells were calculated and thresholds were set based on the background intensities. Percentages of GFP or mCherry positive cells were calculated and normalized to the DMSO treated group.
VimPro-GFP and EcadPro-RFP reporter assays. Stable VimPro-GFP or EcadPro-RFP SW620 reporter cells were generated using pCDH-VimPro-GFP-EF1-puro virus or pCDH-EcadPro-mCherry-EF1-puro virus as previously reported. […] Transduced cells were selected with puromycin at 2 μg/mL. The stable fluorescent labeled reporter cells were then used to generate tumor organoids as described. Tumor organoids were then treated with TOP2A inhibitors at 10 μM for an additional 72 h. Following treatment, tumor organoids were stained with 16 μM of Hoechst 33342 for 1 h, which functions as a nuclear stain for imaging segmentation. Images were taken with a 5× air objective.

[4] = Table 1, decatenation, 30 μM fixed concentration
[5] = Table 3, 30 μM, read-out: % TOP2A Decatenation inhibition (30 μM)
[6] = 1 h, Table 1, decatenation, 30 μM fixed concentration, read-out: % Inhibition TOP2A (30 μM)
[7] = Table 1, decatenation dose response, read-out: % Inhibition TOP2A (IC50 Values)
[8] = Table 3, read-out: TOP2A Inhibition IC50

T1 sequence (P11388 whole entry): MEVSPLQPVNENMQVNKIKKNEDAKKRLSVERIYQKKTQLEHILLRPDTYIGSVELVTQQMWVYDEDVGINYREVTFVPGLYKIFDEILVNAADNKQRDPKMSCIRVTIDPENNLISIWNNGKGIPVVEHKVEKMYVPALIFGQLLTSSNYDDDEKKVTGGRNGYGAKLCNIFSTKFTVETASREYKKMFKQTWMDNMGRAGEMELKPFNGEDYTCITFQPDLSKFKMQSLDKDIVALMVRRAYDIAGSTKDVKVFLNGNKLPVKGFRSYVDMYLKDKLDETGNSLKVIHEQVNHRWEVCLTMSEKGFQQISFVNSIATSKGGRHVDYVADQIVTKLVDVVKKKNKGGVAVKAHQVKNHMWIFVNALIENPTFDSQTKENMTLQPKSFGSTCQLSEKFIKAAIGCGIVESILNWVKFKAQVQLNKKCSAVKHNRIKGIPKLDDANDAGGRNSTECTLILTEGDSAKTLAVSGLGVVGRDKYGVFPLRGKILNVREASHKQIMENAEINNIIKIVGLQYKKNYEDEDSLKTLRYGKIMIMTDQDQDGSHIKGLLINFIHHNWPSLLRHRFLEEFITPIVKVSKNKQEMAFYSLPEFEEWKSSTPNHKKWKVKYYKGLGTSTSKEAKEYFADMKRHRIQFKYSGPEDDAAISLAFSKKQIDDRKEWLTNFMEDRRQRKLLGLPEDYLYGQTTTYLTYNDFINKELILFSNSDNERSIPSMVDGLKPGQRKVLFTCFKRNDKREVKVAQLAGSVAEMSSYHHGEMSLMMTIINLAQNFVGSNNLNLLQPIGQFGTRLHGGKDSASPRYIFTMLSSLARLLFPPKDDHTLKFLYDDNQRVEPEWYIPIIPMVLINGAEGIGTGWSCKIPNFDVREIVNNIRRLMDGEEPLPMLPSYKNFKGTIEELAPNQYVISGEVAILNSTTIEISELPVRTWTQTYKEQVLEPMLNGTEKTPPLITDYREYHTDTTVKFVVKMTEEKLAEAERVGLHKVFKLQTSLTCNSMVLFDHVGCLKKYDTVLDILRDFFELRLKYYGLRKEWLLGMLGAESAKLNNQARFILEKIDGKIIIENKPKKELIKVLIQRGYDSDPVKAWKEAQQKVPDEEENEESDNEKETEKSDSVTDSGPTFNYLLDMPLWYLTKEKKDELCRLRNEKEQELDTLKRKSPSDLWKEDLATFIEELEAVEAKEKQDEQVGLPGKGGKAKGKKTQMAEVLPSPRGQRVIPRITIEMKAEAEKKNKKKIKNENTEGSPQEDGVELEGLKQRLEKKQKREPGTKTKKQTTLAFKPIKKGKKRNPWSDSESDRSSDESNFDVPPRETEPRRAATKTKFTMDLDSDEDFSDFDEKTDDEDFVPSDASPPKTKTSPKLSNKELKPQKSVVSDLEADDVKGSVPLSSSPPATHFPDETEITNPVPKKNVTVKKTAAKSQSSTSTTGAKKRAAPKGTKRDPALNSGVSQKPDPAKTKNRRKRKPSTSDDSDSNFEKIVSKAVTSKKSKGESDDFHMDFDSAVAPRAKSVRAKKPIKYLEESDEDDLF

| Structure (SMILES) | % Inhibition TOP2A (30 μM) (Human TOP2A; [4]) [%] | pEC50 [2] | EC50 [3] [µM] | TOP2A inhibition, result in words (Human TOP2A) | further results |
| --- | --- | --- | --- | --- | --- |
| O=C(CN1CCOCC1)Nc1ccc2c(-c3cc(F)ccc3O)ccnc2c1O [Analog 41] | 4.0 | – | – | – | pIC50 [1]: 5.33 |
| CC(=O)Nc1ccc2c(Nc3ccc(O)cc3F)ccnc2c1O [AA-29-172] | – | 4.23 | 45.9 | – | – |
| CC(=O)Nc1ccc2c(Nc3cccc(F)c3)ccnc2c1O [AA-29-146] | – | 5.01 | 7.4 | – | inhibition at 30 µM (Human TOP2A; [5]): 100% |
| COc1ccc(F)cc1-c1ccnc2c(OC)c(NC(C)=O)ccc12 [Analog 6] | 0.0 | – | – | – | – |
| CC(=O)Nc1ccc2c(-c3ccccc3)ccnc2c1O [Analog 28] | 25.0 | – | – | – | – |
| CC(=O)Nc1ccc2c(Nc3ccc4[nH]c(C)cc4c3)ccnc2c1O [AA-29-155] | – | 3.89 | 9.56 | – | – |
| CC(=O)Nc1ccc2c(-c3ccc(F)cc3)ccnc2c1O [Analog 30] | 1.0 | – | – | the activity is lost | – |
| CC(=O)Nc1ccc2c(-c3cc(C(F)(F)F)ccc3O)ccnc2c1O [Analog 37] | – | – | – | excellent inhibitory activity | inhibition at 30 µM (Human TOP2A; [6]): 100%; pIC50 (Human TOP2A; [7]): 5.05 |
| O=C(CCN1CCOCC1)Nc1ccc2c(NC3CCCCC3)ccnc2c1O [AA-34-180] | – | 4.18 | 13 | – | inhibition at 30 µM (Human TOP2A; [5]): 0% |
| CC(=O)Nc1ccc2c(-c3cccc(O)c3)ccnc2c1O [Analog 33] | 0.0 | – | – | – | – |
| CC(=O)Nc1ccc2c(-c3cc(Cl)ccc3O)ccnc2c1O [Analog 38] | 0.0 | – | – | no activity was observed | – |
| CC(=O)Nc1ccc2c(-c3cncnc3)ccnc2c1O [Analog 59] | 0.0 | – | – | – | – |
| CC(=O)Nc1ccc2c(-c3ccc(C(F)(F)F)cc3)ccnc2c1O [Analog 32] | – | – | – | excellent inhibitory activity | inhibition at 30 µM (Human TOP2A; [6]): 97%; pIC50 (Human TOP2A; [7]): 6.15 |
| CC(=O)Nc1ccc2c(NC3CCCCC3)ccnc2c1O [AA-29-216] | – | 4.75 | 20.6 | – | inhibition at 30 µM (Human TOP2A; [5]): 100%; pIC50 (Human TOP2A; [8]): 6.54 |
| CC(=O)Nc1ccc2c(Nc3cccc4[nH]ccc34)ccnc2c1O [AA-29-147] | – | 3.84 | 14.8 | – | – |
| CC(=O)Nc1ccc2c(Nc3cccc(C(F)(F)F)c3)ccnc2c1O [AA-29-157] | – | 3.75 | 29.9 | – | – |
| CC(=O)Nc1ccc2c(-c3cccc(F)c3)ccnc2c1O [Analog 29] | – | – | – | potent inhibition of TOP2A activity | inhibition at 30 µM (Human TOP2A; [6]): 100%; pIC50 (Human TOP2A; [7]): 5.11 |
| CC(=O)Nc1ccc2c(Nc3ccc4[nH]ccc4c3)ccnc2c1O [AA-29-136] | – | 5.08 | 4.1 | – | inhibition at 30 µM (Human TOP2A; [5]): 90% |

| Structure (SMILES) | % Inhibition TOP2A (30 μM) (Human TOP2A; [4]) [%] | pEC50 [2] | EC50 [3] [µM] | TOP2A inhibition, result in words (Human TOP2A) | further results |
| --- | --- | --- | --- | --- | --- |
| CC(=O)Nc1ccc2c(-c3ccco3)ccnc2c1O [Analog 55] | 0.0 | – | – | significant loss of activity | – |
| CC(=O)Nc1ccc2c(Nc3cc(O)ccc3F)ccnc2c1O [AA-29-171] | – | 3.86 | 26.6 | – | – |
| CC(=O)Nc1ccc2c(NC3CCCCCC3)ccnc2c1O [AA-34-130] | – | 4.44 | 59 | – | inhibition at 30 µM (Human TOP2A; [5]): 100%; pIC50 (Human TOP2A; [8]): 5.82 |
| CC(=O)Nc1ccc2c(Nc3ccccc3)ccnc2c1O [AA-29-148] | – | 5.12 | 25.9 | – | inhibition at 30 µM (Human TOP2A; [5]): 100% |
| COc1c(NC(C)=O)ccc2c(-c3cc4ccccc4s3)ccnc12 [Analog 45] | – | – | – | – | pIC50 [1]: 4.97 |
| CC(=O)Nc1ccc2c(-c3cc4ccccc4s3)ccnc2c1O [Analog 54] | 0.0 | – | – | inhibition was lost | – |
| CC(=O)Nc1ccc2c(NC3CCC3)ccnc2c1O [AA-34-132] | – | 4.00 | 27.7 | – | inhibition at 30 µM (Human TOP2A; [5]): 94%; pIC50 (Human TOP2A; [8]): 5.18 |
| CC(=O)Nc1ccc2c(NC3CCCC3)ccnc2c1O [AA-34-131] | – | 4.67 | 23 | – | inhibition at 30 µM (Human TOP2A; [5]): 92%; pIC50 (Human TOP2A; [8]): 5.67 |
| CC(=O)Nc1ccccc1-c1ccnc2c(O)c(NC(C)=O)ccc12 [Analog 34] | 1.0 | – | – | significant loss of activity | – |
| CC(=O)Nc1ccc2c(-c3ccsc3)ccnc2c1O [Analog 58] | – | – | – | improves activity compared to the 3-furanyl analog 56 | inhibition at 30 µM (Human TOP2A; [6]): 92%; pIC50 (Human TOP2A; [7]): 5.30 |
| O=C(CN1CCOCC1)Nc1ccc2c(-c3cc4ccccc4o3)ccnc2c1O [Analog 60] | – | – | – | – | inhibition at 30 µM (Human TOP2A; [6]): 100%; pIC50 (Human TOP2A; [7]): 5.30 |
| O=C(CN1CCOCC1)Nc1ccc2c(NC3CCCCC3)ccnc2c1O [AA-34-171] | – | 4.32 | 17.5 | – | inhibition at 30 µM (Human TOP2A; [5]): 62% |
| CC(C)(C)C(=O)Nc1ccc2c(-c3cc(F)ccc3O)ccnc2c1O [Analog 40] | 0.0 | – | – | – | – |
| CC(=O)Nc1ccccc1-c1ccnc2c(O)c(NC(=O)CCN3CCOCC3)ccc12 [Analog 43] | 1.0 | – | – | – | – |
| CC(=O)Nc1ccc2c(Nc3ccc(C(F)(F)F)cc3)ccnc2c1O [AA-29-158] | – | 4.19 | 1.36 | – | – |
| CC(=O)Nc1cccc(-c2ccnc3c(O)c(NC(C)=O)ccc23)c1 [Analog 36] | 3.0 | – | – | significant loss of activity | – |
| CC(=O)Nc1ccc2c(-c3cccc(C(F)(F)F)c3)ccnc2c1O [Analog 31] | 97.0 | – | – | excellent inhibitory activity | pIC50 (Human TOP2A; [7]): 5.47 |

— patent US12291502B2, “Topoisomerase II-alpha inhibitors and methods of treating cancer using the same” (The Regents of the University of Colorado, priority 2019, dated 2025)
